According to US7879858B2, “Substituted tetrahydropyrrolopyrazine compounds and the use thereof in pharmaceutical compositions” (Gruenenthal GmbH, priority 2006, dated 2011):

Columns and labels:
[1] = target: T1, Serotonin reuptake (Rattus norvegicus, UniProt P31652); assay: Inhibition of 5HT (serotonin) uptake in rat brain synaptosomes; format: biochemical; settings: 10 μmol; synaptosomes from rat brain
T1 construct: synaptosomes are freshly isolated from areas of the rat brain; from tissue; host or cells: rat brain synaptosomes (P2 fraction)
Experimental: (§1) Biological Data Inhibition of NA and 5HT Uptake
(§2) In order to be able to carry out these in vitro studies, synaptosomes are freshly isolated from areas of the rat brain. In each case a so-called “P2” fraction prepared in accordance with the instructions of Gray and Whittaker (E. G. Gray and V. P. Whittaker (1962) J. Anat. 76, 79-88) is prepared. For the NA uptake, these vesicular particles are isolated from the hypothalamus of male rat brains. A detailed description of the method can be found in the literature (M. Ch. Frink, H.-H. Hennies, W. Englberger, M. Haurand and B. Wilffert (1996) Arzneim.-Forsch./Drug Res. 46 (III), 11, 1029-1036).

[2] = tested on: NA reuptake; assay: Inhibition of NA (noradrenaline) uptake in rat hypothalamus synaptosomes; format: biochemical; settings: synaptosomes from hypothalamus of male rat brains
Experimental: as §1, §2

T1 sequence (P31652 whole entry): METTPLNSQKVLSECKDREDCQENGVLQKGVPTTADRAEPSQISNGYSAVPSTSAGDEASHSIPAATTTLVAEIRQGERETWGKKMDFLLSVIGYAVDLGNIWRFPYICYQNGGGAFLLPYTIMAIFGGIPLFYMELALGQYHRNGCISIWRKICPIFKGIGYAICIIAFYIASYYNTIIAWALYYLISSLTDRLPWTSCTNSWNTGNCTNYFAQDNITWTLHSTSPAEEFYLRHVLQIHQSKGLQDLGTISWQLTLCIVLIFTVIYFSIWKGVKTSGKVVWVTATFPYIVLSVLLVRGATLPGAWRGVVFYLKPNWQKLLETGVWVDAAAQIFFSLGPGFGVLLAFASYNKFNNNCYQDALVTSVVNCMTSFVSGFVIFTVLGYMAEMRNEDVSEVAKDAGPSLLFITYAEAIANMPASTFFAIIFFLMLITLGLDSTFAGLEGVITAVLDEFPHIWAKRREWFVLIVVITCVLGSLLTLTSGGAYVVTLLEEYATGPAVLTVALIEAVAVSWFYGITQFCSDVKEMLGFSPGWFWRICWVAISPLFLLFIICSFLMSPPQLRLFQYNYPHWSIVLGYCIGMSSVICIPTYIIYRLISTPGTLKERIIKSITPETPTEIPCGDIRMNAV

| inhibition at 10 µM [1] [%] | SMILES | NA reuptake % inhibition [10 μmol] [2] [%] |
| --- | --- | --- |
| 43 | CN(C)c1ccc(C2c3cccn3CCN2C(=O)c2ccccc2F)cc1 (stereo not drawn) [Example 51, (1-(4-(dimethylamino)phenyl)-3,4-dihydropyrrolo[1,2-a]pyrazin-2(1H)-yl)(2-fluorophenyl)methanone] | 19 |
| 31 | CN(C)c1ccc(C2c3cccn3CCN2C(=O)c2cccs2)cc1 (stereo not drawn) [Example 53, (1-(4-(dimethylamino)phenyl)-3,4-dihydropyrrolo[1,2-a]pyrazin-2(1H)-yl)(thiophen-2-yl)methanone] | 26 |
| 50 | Cc1ccccc1C1c2cccn2CCN1C(=O)C1CCCC1 (stereo not drawn) [Example 10, cyclopentyl-(1-o-tolyl-3,4-dihydro-1H-pyrrolo[1,2-a]pyrazin-2-yl)-methanone] | 30 |
| 29 | O=C(C1CCC1)N1CCn2cccc2C1c1ccc(F)cc1 (stereo not drawn) [Example 28, cyclobutyl(1-(4-fluorophenyl)-3,4-dihydropyrrolo[1,2-a]pyrazin-2(1H)-yl)methanone] | 21 |
| 60 | O=C(c1cccc(F)c1)N1CCn2cccc2C1c1cccs1 (stereo not drawn) [Example 58, (3-fluoro-phenyl)-(1-thiophen-2-yl-3,4-dihydro-1H-pyrrolo[1,2-a]pyrazin-2-yl)-methanone] | 54 |
| 47 | CN(C)c1ccc(C2c3cccn3CCN2C(=O)c2ccc(F)cc2)cc1 (stereo not drawn) [Example 54, (1-(4-(dimethylamino)phenyl)-3,4-dihydropyrrolo[1,2-a]pyrazin-2(1H)-yl)(4-fluorophenyl)methanone] | 40 |
| 30 | O=C(C1CCCC1)N1CCn2cccc2C1c1cccc(Cl)c1 (stereo not drawn) [Example 42, (1-(3-chlorophenyl)-3,4-dihydropyrrolo[1,2-a]pyrazin-2(1H)-yl)(cyclopentyl)methanone] | 22 |
| 58 | O=C(c1ccc(F)cc1)N1CCn2cccc2C1c1ccc2c(c1)OCCO2 (stereo not drawn) [Example 38, [1-(2,3-dihydro-benzo[1,4]dioxin-6-yl)-3,4-dihydro-1H-pyrrolo[1,2-a]pyrazin-2-yl]-(4-fluoro-phenyl)-methanone] | 48 |
| 33 | COCC(=O)N1CCn2cccc2C1c1ccccc1 (stereo not drawn) [Example 25, 2-methoxy-1-(1-phenyl-3,4-dihydropyrrolo[1,2-a]pyrazin-2(1H)-yl)ethanone] | 12 |
| 11 | O=C(c1ccco1)N1CCn2cccc2C1c1ccccc1 (stereo not drawn) [Example 21, furan-2-yl(1-phenyl-3,4-dihydropyrrolo[1,2-a]pyrazin-2(1H)-yl)methanone] | 44 |

Second part, the compound before the results:

| SMILES | inhibition at 10 µM [1] [%] | NA reuptake % inhibition [10 μmol] [2] [%] |
| --- | --- | --- |
| Cc1ccsc1C(=O)N1CCn2cccc2C1c1ccccc1 (stereo not drawn) [Example 70, (3-methylthiophen-2-yl)(1-phenyl-3,4-dihydropyrrolo[1,2-a]pyrazin-2(1H)-yl)methanone] | 38 | 11 |
| Cc1ccccc1C1c2cccn2CCN1C(=O)c1ccccc1F (stereo not drawn) [Example 32, (2-fluorophenyl)(1-o-tolyl-3,4-dihydropyrrolo[1,2-a]pyrazin-2(1H)-yl)methanone] | 29 | 14 |
| CC(C)CC(=O)N1CCn2cccc2C1c1ccc(Cl)c(Cl)c1 (stereo not drawn) [Example 64, 1-(1-(3,4-dichlorophenyl)-3,4-dihydropyrrolo[1,2-a]pyrazin-2(1H)-yl)-3-methylbutan-1-one] | 48 | 30 |
| O=C(c1ccc2c(c1)OCO2)N1CCn2cccc2C1c1cccc(Cl)c1 (stereo not drawn) [Example 40, benzo[d][1,3]dioxol-5-yl(1-(3-chlorophenyl)-3,4-dihydropyrrolo[1,2-a]pyrazin-2(1H)-yl)methanone] | 38 | 41 |
| O=C(CCc1ccccc1)N1CCn2cccc2C1c1cccs1 (stereo not drawn) [Example 76, 3-phenyl-1-(1-(thiophen-2-yl)-3,4-dihydropyrrolo[1,2-a]pyrazin-2(1H)-yl)propan-1-one] | 36 | 46 |
| Cc1cccc(C2c3cccn3CCN2C(=O)c2cccs2)c1 (stereo not drawn) [Example 14, thiophen-2-yl(1-m-tolyl-3,4-dihydropyrrolo[1,2-a]pyrazin-2(1H)-yl)methanone] | 27 | 25 |
| Cc1ccccc1C(=O)N1CCn2cccc2C1c1ccc2c(c1)OCCO2 (stereo not drawn) [Example 34, [1-(2,3-dihydro-benzo[1,4]dioxin-6-yl)-3,4-dihydro-1H-pyrrolo[1,2-a]pyrazin-2-yl]-o-tolyl-methanone] | 52 | 22 |
| COc1ccccc1C1c2cccn2CCN1C(=O)c1ccc2c(c1)OCO2 (stereo not drawn) [Example 3, benzo[1,3]dioxol-5-yl-[1-(2-methoxy-phenyl)-3,4-dihydro-1H-pyrrolo[1,2-a]pyrazin-2-yl]-methanone] | 86 | 29 |
| O=C(c1ccc2c(c1)OCO2)N1CCn2cccc2C1c1ccc2c(c1)OCCO2 (stereo not drawn) [Example 33, benzo[1,3]dioxol-5-yl-[1-(2,3-dihydro-benzo[1,4]dioxin-6-yl)-3,4-dihydro-1H-pyrrolo[1,2-a]pyrazin-2-yl]-methanone] | 52 | 26 |
| O=C(c1cccc(F)c1)N1CCn2cccc2C1c1ccccc1F (stereo not drawn) [Example 7, (3-fluoro-phenyl)-[1-(2-fluoro-phenyl)-3,4-dihydro-1H-pyrrolo[1,2-a]pyrazin-2-yl]-methanone] | 54 | 36 |
| O=C(c1cccs1)N1CCn2cccc2C1c1ccc2c(c1)OCCO2 (stereo not drawn) [Example 36, [1-(2,3-dihydro-benzo[1,4]dioxin-6-yl)-3,4-dihydro-1H-pyrrolo[1,2-a]pyrazin-2-yl]-thiophen-2-yl-methanone] | 59 | 41 |
